Assay results as given in patent US20240317725A1, “LPA1 SMALL MOLECULE ANTAGONIST” (TUOJIE BIOTECH (SHANGHAI) CO., LTD., priority 2021, published 2024).

target: T1, human lysophosphatidic acid receptor 1 (LPAR1) (Homo sapiens, UniProt Q92633); assay: FLIPR test of antagonist properties: inhibition of LPA-induced intracellular calcium elevation in CHO-K1 cells expressing hLPAR1; assay type: cell-based; conditions: FLIPR calcium assay, CHO-K1/LPA1R cells, LPA at EC80
T1 construct: host or cells: CHO-K1 (Chinese hamster ovary K1) cells, CHO-K1/LPA1R, kept under hygromycin B selection
Protocol: The antagonist properties of the compounds of the present disclosure were tested using the FLIPR (fluorometric imaging plate reader) method. The compounds are inhibitors of intracellular calcium elevation induced by activation of hLPARI (human lysophosphatidic acid receptor 1) expressed in CHO-K1 cells (Chinese hamster ovary K1 cells, HDB).
2.1. Reaction buffer: HBSS+20 mM HEPES+0.1% fatty acid-free BSA+0.001% F-127
2.2. 50×Red dye: (a red dye for blocking background signals in cells) prepared by: weighing out 4 g of tartrazine and 10.2 g of acid red and dissolving them in 100 mL of H2O.
2.3. Fluo-8 staining mixture: 4 mL of reaction buffer, 32 μL of fluo-8, 320 μL of 50×Red dye, and 40 μL of probenecid.
3.1. LPA: dissolved in DPBS (containing 0.1% fatty acid-free BSA) to prepare a 0.8 μM stock solution, and the solution was aliquoted and stored at −20° C.
3.2. Test compound preparation: The test compounds were dissolved in DMSO to prepare 10 mM stock solutions, and the solutions were stored at −20° C. In the experiment, the compounds were first gradient-diluted with DMSO (initial concentration of 50 μM, 3-fold dilution, 10 points) to prepare 200×compound solutions. The compound solutions were then diluted with reaction buffer to give 5×compound solutions, and the solutions were transferred to a 384-well plate (Cat. No. 6008590) using Bravo.
4.1. CHO-K1/LPA1R cells were cultured in a cell culture medium (F-12+10% FBS+400 μg/mL hygromycin B).
4.2. When the cell confluence reached 80%, the cells were digested with 0.25% pancreatin.
4.3. When the cells became round, the digestion was stopped with the medium F-12 (10% FBS), and the cells were counted. Then the cell culture was diluted with F-12 (10% FBS) to give a cell suspension with a density of 6.7×10^5 cells/mL.
4.4. The cell suspension was added to a 384-well black cell culture plate at 30 µL/well using a Multidrop auto-dispenser, and the plate was incubated in a 37° C., 5% CO2 incubator for 20-24 h. The medium was changed to a serum-free F-12 medium, and the cells were starved for 24 h.
4.5. Dose experiment for testing LPA. Gradient dilutions of 6×LPA solution (initial concentration of 60 μM, 3-fold dilution, 10 points) were prepared with reaction buffer. The medium in the 384-well black cell culture plate was discarded and changed to reaction buffer. 10 μL of 5% DMSO reaction buffer was added, and 10 μL of Fluo-8 staining mixture was then added. The plate was incubated in the dark in a 37° C., 5% CO2 incubator for 0.5 h.
4.6. FLIPR was correspondingly programmed, the 6×LPA gradient solutions were added, and readings were taken. Two-minute data were collected.
4.7. A reaction curve was obtained from the numerical values of LPA, and the concentration of LPA at EC80 was calculated. A 6×LPA solution was prepared in a 384-well plate (Cat. No. 6008590), and HPE and ZPE were added to corresponding wells. HPE (one hundred per cent effect) was 60 μM LPA, and ZPE (zero per cent effect) was reaction buffer.
4.8. Testing of compounds. The medium in the 384-well black cell culture plate was discarded and changed to reaction buffer. 10 μL of 5×compound solution was transferred using Bravo, and then 10 μL of Fluo-8 staining mixture was added immediately. The plate was incubated in the dark in a 37° C., 5% CO2 incubator for 0.5 h.
4.9. FLIPR was correspondingly programmed, the 6×LPA solution was added, and readings were taken. Two-minute data were collected.
4.10. Finally, the output fluorescence counts were analyzed, and IC50 was calculated for the compounds.

T1 sequence (Q92633 whole entry): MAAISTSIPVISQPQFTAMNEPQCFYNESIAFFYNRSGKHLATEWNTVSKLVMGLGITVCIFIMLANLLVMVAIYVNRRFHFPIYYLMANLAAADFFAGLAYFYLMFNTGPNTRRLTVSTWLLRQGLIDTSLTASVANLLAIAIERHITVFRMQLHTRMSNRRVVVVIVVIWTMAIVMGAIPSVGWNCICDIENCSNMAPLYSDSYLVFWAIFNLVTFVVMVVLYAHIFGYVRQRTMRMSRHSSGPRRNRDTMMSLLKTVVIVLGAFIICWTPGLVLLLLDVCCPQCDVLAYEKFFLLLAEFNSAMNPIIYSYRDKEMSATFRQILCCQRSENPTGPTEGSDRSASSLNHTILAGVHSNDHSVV

IC50	Compound
13.3 nM	Cc1nc(-c2nnn(C)c2COc2nccc(C(F)(F)F)n2)ccc1OC1CC2CCC(C(=O)O)C2C1 (single isomer, unassigned) [Compound 1-P1, 5-((2-Methyl-6-(1-methyl-5-(((4-(trifluoromethyl)pyrimidin-2-yl)oxy)methyl)-1H-1,2,3-triazol-4-yl)pyridin-3-yl)oxy)octahydropentalene-1-carboxylic acid]
1860 nM	Cc1nc(-c2nnn(C)c2COc2nccc(C(C)(C)O)n2)ccc1OC1CC2CCC(C(=O)O)C2C1 (single isomer, unassigned) [Compound 10-P2, 5-((6-(5-(((4-(2-Hydroxypropan-2-yl)pyrimidin-2-yl)oxy)methyl)-1-methyl-1H-1,2,3-triazol-4-yl)-2-methylpyridin-3-yl)oxy)octahydropentalene-1-carboxylic acid]
35.8 nM	CCc1cc(OCc2c(-c3ccc(OC4CC5CCC(C(=O)O)C5C4)c(C)n3)nnn2C)ncn1 (single isomer, unassigned) [Compound 4-P2, 5-((6-(5-(((6-Ethylpyrimidin-4-yl)oxy)methyl)-1-methyl-1H-1,2,3-triazol-4-yl)-2-methylpyridin-3-yl)oxy)octahydropentalene-1-carboxylic acid]
50.6 nM	COc1ccnc(OCc2c(-c3ccc(OC4CC5CCC(C(=O)O)C5C4)c(C)n3)nnn2C)n1 (single isomer, unassigned) [Compound 11-P2, 5-((6-(5-(((4-Methoxypyrimidin-2-yl)oxy)methyl)-1-methyl-1H-1,2,3-triazol-4-yl)-2-methylpyridin-3-yl)oxy)octahydropentalene-1-carboxylic acid]
> 10000 nM	COCc1ccnc(OCc2c(-c3ccc(OC4CC5CCC(C)(C(=O)O)C5C4)c(C)n3)nnn2C)n1 (single isomer, unassigned) [Compound 14-P2, 5-((6-(5-(((4-(Methoxymethyl)pyrimidin-2-yl)oxy)methyl)-1-methyl-1H-1,2,3-triazol-4-yl)-2-methylpyridin-3-yl)oxy)-1-methyloctahydropentalene-1-carboxylic acid]
746 nM	CCc1cc(OCc2c(-c3ccc(OC4CC5CCC(C(=O)O)C5C4)c(C)n3)nnn2C)ncn1 (single isomer, unassigned) [Compound 4-P1, 5-((6-(5-(((6-Ethylpyrimidin-4-yl)oxy)methyl)-1-methyl-1H-1,2,3-triazol-4-yl)-2-methylpyridin-3-yl)oxy)octahydropentalene-1-carboxylic acid]
2690 nM	Cc1nc(-c2nnn(C)c2COc2noc(C3CC3)n2)ccc1OC1CC2CCC(C(=O)O)C2C1 (single isomer, unassigned) [Compound 2-P2, 5-((6-(5-(((5-Cyclopropyl-1,2,4-oxadiazol-3-yl)oxy)methyl)-1-methyl-1H-1,2,3-triazol-4-yl)-2-methylpyridin-3-yl)oxy)octahydropentalene-1-carboxylic acid]
41.5 nM	COCc1ccnc(OCc2c(-c3ccc(OC4CC5CCC(C)(C(=O)O)C5C4)c(C)n3)nnn2C)n1 (single isomer, unassigned) [Compound 14-P1, 5-((6-(5-(((4-(Methoxymethyl)pyrimidin-2-yl)oxy)methyl)-1-methyl-1H-1,2,3-triazol-4-yl)-2-methylpyridin-3-yl)oxy)-1-methyloctahydropentalene-1-carboxylic acid]
853 nM	Cc1nc(-c2nnn(C)c2COc2nccc(O[C@H]3CCOC3)n2)ccc1OC1CC2CCC(C(=O)O)C2C1 (single isomer, unassigned) [Compound 9-P2]
93.9 nM	Cc1nc(-c2nnn(C)c2COc2nccc(C(F)F)n2)ccc1OC1CC2CCC(C(=O)O)C2C1 (stereo not drawn) [Compound 7, 5-((6-(5-(((4-(Difluoromethyl)pyrimidin-2-yl)oxy)methyl)-1-methyl-1H-1,2,3-triazol-4-yl)-2-methylpyridin-3-yl)oxy)octahydropentalene-1-carboxylic acid]
33.4 nM	Cc1nc(-c2nnn(C)c2COc2nccc(O[C@H]3CCOC3)n2)ccc1OC1CC2CCC(C(=O)O)C2C1 (single isomer, unassigned) [Compound 9-P1]
39.6 nM	Cc1nc(-c2nnn(C)c2COc2nccc(C(F)F)n2)ccc1OC1CC2CCC(F)(C(=O)O)C2C1 (stereo not drawn) [Compound 6, 5-((6-(5-(((4-(Difluoromethyl)pyrimidin-2-yl)oxy)methyl)-1-methyl-1H-1,2,3-triazol-4-yl)-2-methylpyridin-3-yl)oxy)-1-fluorooctahydropentalene-1-carboxylic acid]
917 nM	COCc1ccnc(OCc2c(-c3ccc(OC4CC5CCC(F)(C(=O)O)C5C4)c(C)n3)nnn2C)n1 (single isomer, unassigned) [Compound 5-P2, 1-Fluoro-5-((6-(5-(((4-(methoxymethyl)pyrimidin-2-yl)oxy)methyl)-1-methyl-1H-1,2,3-triazol-4-yl)-2-methylpyridin-3-yl)oxy)octahydropentalene-1-carboxylic acid]
88.7 nM	Cc1nc(-c2nnn(C)c2COc2nccc(C(C)(C)O)n2)ccc1OC1CC2CCC(C(=O)O)C2C1 (single isomer, unassigned) [Compound 10-P1, 5-((6-(5-(((4-(2-Hydroxypropan-2-yl)pyrimidin-2-yl)oxy)methyl)-1-methyl-1H-1,2,3-triazol-4-yl)-2-methylpyridin-3-yl)oxy)octahydropentalene-1-carboxylic acid]
28 nM	Cc1nc(-c2nnn(C)c2COc2nccc(O[C@@H]3CCOC3)n2)ccc1OC1CC2CCC(C(=O)O)C2C1 (single isomer, unassigned) [Compound 8-P1]
60.6 nM	CCCN(C)C(=O)OCc1c(-c2ccc(O[C@H]3CCC[C@H](C(=O)O)C3)c(C)n2)nnn1C [BMS986278, reference compound]
15.6 nM	COCc1ccnc(OCc2c(-c3ccc(OC4CC5CCC(F)(C(=O)O)C5C4)c(C)n3)nnn2C)n1 (single isomer, unassigned) [Compound 5-P1, 1-Fluoro-5-((6-(5-(((4-(methoxymethyl)pyrimidin-2-yl)oxy)methyl)-1-methyl-1H-1,2,3-triazol-4-yl)-2-methylpyridin-3-yl)oxy)octahydropentalene-1-carboxylic acid]
16.7 nM	Cc1nc(-c2nnn(C)c2COc2nccc(C(F)(F)F)n2)ccc1OC1CC2CCC(C(=O)O)C2C1 (stereo not drawn) [Compound 1, 5-((2-Methyl-6-(1-methyl-5-(((4-(trifluoromethyl)pyrimidin-2-yl)oxy)methyl)-1H-1,2,3-triazol-4-yl)pyridin-3-yl)oxy)octahydropentalene-1-carboxylic acid]
26 nM	Cc1nc(-c2nnn(C)c2COc2noc(C3CC3)n2)ccc1OC1CC2CCC(C(=O)O)C2C1 (single isomer, unassigned) [Compound 2-P1, 5-((6-(5-(((5-Cyclopropyl-1,2,4-oxadiazol-3-yl)oxy)methyl)-1-methyl-1H-1,2,3-triazol-4-yl)-2-methylpyridin-3-yl)oxy)octahydropentalene-1-carboxylic acid]
659 nM	Cc1nc(-c2nnn(C)c2COc2nccc(C(F)(F)F)n2)ccc1OC1CC2CCC(C(=O)O)C2C1 (single isomer, unassigned) [Compound 1-P2, 5-((2-Methyl-6-(1-methyl-5-(((4-(trifluoromethyl)pyrimidin-2-yl)oxy)methyl)-1H-1,2,3-triazol-4-yl)pyridin-3-yl)oxy)octahydropentalene-1-carboxylic acid]
75 nM	Cc1nc(-c2nnn(C)c2COc2nccc(C(F)(F)F)n2)ccc1O[C@H]1CCC[C@H](C(=O)O)C1 [Compound 12, (1S,3S)-3-((2-Methyl-6-(1-methyl-5-(((4-(trifluoromethyl)pyrimidin-2-vl)oxy)methyl)-1H-1,2,3-triazol-4-yl)pyridin-3-yl)oxy)cyclohexane-1-carboxylic acid]
